Test results taken from publication PMC5665533, “Generation of G protein-coupled receptor antibodies differentially sensitive to conformational states” (PLoS ONE, 2017).

Molecular target: T1, dopamine D1 receptor (D1R) (Homo sapiens, UniProt P21728)
T1 construct: gene DRD1; endogenous full-length receptor in SK-N-SH neuroblastoma cells
Assay: ELISA, agonist-induced receptor recognition by anti-D1R antibody, SK-N-SH cells
Assay type: cell-based
Conditions: 1 μM agonist; endogenous receptor

T1 sequence (P21728 whole entry): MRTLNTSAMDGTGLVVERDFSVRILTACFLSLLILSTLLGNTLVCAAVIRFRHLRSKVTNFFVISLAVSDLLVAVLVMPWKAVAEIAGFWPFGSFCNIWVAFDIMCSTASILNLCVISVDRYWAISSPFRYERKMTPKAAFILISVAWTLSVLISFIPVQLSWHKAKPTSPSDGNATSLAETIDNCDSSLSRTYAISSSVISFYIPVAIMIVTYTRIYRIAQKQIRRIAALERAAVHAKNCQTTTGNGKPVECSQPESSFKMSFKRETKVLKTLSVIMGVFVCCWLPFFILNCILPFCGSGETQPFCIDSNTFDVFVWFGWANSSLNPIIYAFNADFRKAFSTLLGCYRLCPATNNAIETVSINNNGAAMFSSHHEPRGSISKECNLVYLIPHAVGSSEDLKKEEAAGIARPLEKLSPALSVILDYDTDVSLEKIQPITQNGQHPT

## C=CCN1CCc2c(cc(O)c(O)c2Cl)C(c2cccc(C)c2)C1 (stereo not shown) [SKF83822]
  ELISA, agonist-induced receptor recognition by anti-D1R antibody, SK-N-SH cells: treatment with the dopamine D1 receptor (D1R) agonist, SKF83822
